Experimental findings from patent publication US20260274814A1, “THIENYL COMPOUNDS FOR THE TREATMENT OF A CENTRAL NERVOUS SYSTEM DISEASE OR DISORDER” (Coreterra Therapeutics, Inc., priority 2023, published 2026) are described below.

Where a name gives a salt, the structure may show the parent alone.

The assay concerns mice. Put plainly: Neuropharmacological Assay (SmartCube): automated behavioral signature of compound-treated mice compared with a database of reference drug classes. The format is in vivo. The conditions noted are these: for minimal effective dose: Mus musculus, ip, read-out: MED (minimal effective dose); for minimal effective dose / MED (minimal effective dose): dose having 45% or more total activity in SmartCube, i.p., if only one dose was tested, that dose is shown; for AG / AN / AX / CE / HL / PS / SH / AD / AP / MS / UK: probability that activity matches this class of agents, 3.0 mg/kg i.p., 15 min before test. An excerpt: Neurosci. 2011 Sep. 9; 5: 103 (doi: 10.3389/fnins.2011.00103) (“Roberds”). As reported in Roberds, because psychiatric diseases generally result from disorders of cell-cell communication or circuitry, intact systems are useful in detecting improvement in disease-relevant endpoints. These endpoints are typically behavioral in nature, often requiring human observation and interpretation. To facilitate testing of multiple compounds for behavioral effects relevant to psychiatric disease, PsychoGenics, Inc. (Tarrytown, NY, “PGI”) developed SmartCube™ an automated system in which behaviors of compound-treated mice are captured by digital video and analyzed with computer algorithms. (D. Brunner et al. Drug Discov. Today 2002, 7:S107-S112). PGI Analytical Systems uses data from SmartCube™ to compare the behavioral signature of a test compound to a database of behavioral signatures obtained using a large set of diverse reference compounds. (The composition of the database as well as validation of the method is further described in Roberds). In this way, the neuropharmacological effects of a test compound can be predicted by similarity to major classes of compounds, such as antipsychotics, anxiolytics and antidepressants.
The SmartCube™ system produces an activity signature indicating the probability that the activity of the test compound at the administered dose matches a given class of neuropharmacological agents. (See, e.g., Roberds, FIGS. 2 and 3). The test compound is simultaneously compared against multiple classes of agents; thus, a separate probability is generated for each behavioral effect measured (e.g., anxiolytic activity, analgesic activity, etc.). In table 2 below, these probabilities are reported for each behavioral effect measured as described in Table 1 below.
Provided compounds were dissolved in a mixture of Pharmasolve™ (N-methyl-2-pyrrolidone), polyethylene glycol and propylene glycol, and were injected i.p. 15 min. before the behavioral test. For each compound, injections were administered at 3 different doses. For each behavioral effect measured, results for the 3.0 mg/kg dose are presented. The potency of many of the compounds in the table was also determined in the SmartCube™ system. Test compounds were routinely examined at dose levels of 0.3, 1, 3 and 10 mg per kg (mpk), although the dose range was increased or decreased, if necessary, to obtain a full dose response curve. A compound's minimal effective dose (MED) is a measure of the compound's potency. The MED was defined as the dose (in mpk) having 45% or more total activity in SmartCube. If only one dose was tested, that dose is shown in the MED column of Table 2 even though the dose is not known to be the MED.

For orientation: minimal effective dose means the lowest level tested that produced the effect sought. Consider `CNC1CCc2c(csc2Cl)C1` (single isomer, unassigned) [Compound 57, 1-chloro-N-methyl-4,5,6,7-tetrahydro-2-benzothiophen-5-amine hydrochloride], for which the minimal effective dose worked out at 1 mg/kg, the AG result was “ND (^ <4%)”, the AN result is on record as “ND (^ <4%)” and the AX result is listed as “ND (^ <4%)”. The CE result is “ND (^ <4%)”, the HL result is on record as “ND (^ <4%)”, the PS entry is given as “ND (^ <4%)” and the SH result is “ND (^ <4%)”. For the setting “hydrochloride, 3 mg/kg”, the AD entry is reported as “++ (≥24%)”, the AP entry was “++ (≥24%)”, the MS entry is on record as “ND (^ <4%)” and the UK entry was “+ (≥4%)”.
Turning to `CNC1CCc2c(csc2Cl)C1` (single isomer, unassigned) [Compound 58, 1-chloro-N-methyl-4,5,6,7-tetrahydro-2-benzothiophen-5-amine hydrochloride], the “MED (minimal effective dose)” value is 1.0 mpk, the AG result is “ND (^ <4%)”, the AN result is recorded as “ND (^ <4%)” and the AX entry was “ND (^ <4%)”. Further, the CE entry was “ND (^ <4%)”, the HL result is “ND (^ <4%)”, the PS result was “ND (^ <4%)” and the SH entry is recorded as “ND (^ <4%)”. For the same compound, where the note is “hydrochloride, 3 mg/kg”, the AD entry is “+ (≥4%)”, the AP entry was “+++ (≥49%)”, the MS result was “+ (≥4%)” and the UK result is on record as “ND (^ <4%)”.
As for `CNC1CCc2c(Cl)sc(Cl)c2C1` (single isomer, unassigned) [Compound 59, 1,3-dichloro-N-methyl-4,5,6,7-tetrahydro-2-benzothiophen-5-amine hydrochloride], the minimal effective dose is 3 mg/kg, the AD result was “ND (^ <4%)”, the AG entry is reported as “ND (^ <4%)” and the AN entry is listed as “ND (^ <4%)”. Further, the CE result is given as “ND (^ <4%)”, the HL result is “ND (^ <4%)”, the MS entry is given as “ND (^ <4%)” and the PS result was “ND (^ <4%)”. The SH result was “ND (^ <4%)” and the UK entry is given as “ND (^ <4%)”. Where the note is “hydrochloride, 3 mg/kg”, the AP entry was “+++ (≥49%)” and the AX entry is given as “++ (≥24%)”.
Turning to `CNC1CCc2c(Cl)sc(Cl)c2C1` (single isomer, unassigned) [Compound 60, 1,3-dichloro-N-methyl-4,5,6,7-tetrahydro-2-benzothiophen-5-amine hydrochloride], the “MED (minimal effective dose)” value is listed as 3.0 mpk, the AD entry is recorded as “ND (^ <4%)”, the AG entry is “ND (^ <4%)” and the AN entry was “ND (^ <4%)”. In addition, the CE entry was “ND (^ <4%)”, the HL entry is recorded as “ND (^ <4%)”, the MS entry is “ND (^ <4%)” and the PS result is on record as “ND (^ <4%)”. Moreover, the SH result is on record as “ND (^ <4%)” and the UK result is “ND (^ <4%)”. Further, for the setting “hydrochloride, 3 mg/kg”, the AP entry is “+ (≥4%)” and the AX entry is reported as “+++ (≥49%)”.
For the compound `CNC1CCc2csc(C(F)(F)F)c2C1` (single isomer, unassigned) [Compound 61, N-methyl-3-(trifluoromethyl)-4,5,6,7-tetrahydro-2-benzothiophen-5-amine hydrochloride], the AG entry is “ND (^ <4%)”, the AN entry is “ND (^ <4%)”, the AX result is given as “ND (^ <4%)” and the CE entry is listed as “ND (^ <4%)”. Further, the HL entry is on record as “ND (^ <4%)”, the MS entry is recorded as “ND (^ <4%)”, the PS result is “ND (^ <4%)” and the SH entry is “ND (^ <4%)”. Moreover, the UK entry is listed as “ND (^ <4%)”. The “MED (minimal effective dose)” value (hydrochloride) came out at 3.0 mpk. Besides, under “hydrochloride, 3 mg/kg”, the AD result is listed as “+ (≥4%)” and the AP entry was “+++ (≥49%)”.
